Results taken from ChEMBL document CHEMBL1201861, “Genomics of Drug Sensitity in Cancer screening data, Wellcome Trust Sanger Institute”.

Legend:
[1] = tested on: M14; test: cells; format: functional, cell-based, Homo sapiens; settings: Homo sapiens, M14;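 also: growth inhibition of M14 cells, read out with a cell viability assay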
Description: SANGER: Inhibition of human M14 cell growth in a cell viability assay.

[2] = tested on: SNU-387; test: cells; format: functional, cell-based, Homo sapiens; settings: Homo sapiens, SNU-387
Description: SANGER: Inhibition of human SNU-387 cell growth in a cell viability assay.

[3] = tested on: SCLC-21H; test: cells; format: functional, cell-based, Homo sapiens; settings: Homo sapiens, SCLC-21H;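 also: growth inhibition of cultured human SCLC-21H cells, read out with a cell viability assay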
Description: SANGER: Inhibition of human SCLC-21H cell growth in a cell viability assay.

[4] = tested on: UACC-893; test: cells; format: functional, cell-based, Homo sapiens; settings: Homo sapiens, UACC-893
Description: SANGER: Inhibition of human UACC-893 cell growth in a cell viability assay.

[5] = tested on: SR; test: cells; format: functional, cell-based, Homo sapiens; settings: Homo sapiens, SR
Description: SANGER: Inhibition of human SR cell growth in a cell viability assay.

[6] = tested on: LCLC-103H cell line; test: cells; format: functional, cell-based, Homo sapiens; settings: Homo sapiens, LCLC-103H
Description: SANGER: Inhibition of human LCLC-103H cell growth in a cell viability assay.

[7] = tested on: 639-V; test: cells; format: functional, cell-based, Homo sapiens; settings: Homo sapiens, 639-V;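 also: growth inhibition of 639-V cells, read out with a cell viability assay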
Description: SANGER: Inhibition of human 639-V cell growth in a cell viability assay.

[8] = tested on: SW1088; test: cells; format: functional, cell-based, Homo sapiens; settings: Homo sapiens, SW1088;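 also: growth inhibition of human SW1088 cells, read out by a cell viability assay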
Description: SANGER: Inhibition of human SW1088 cell growth in a cell viability assay.

[9] = tested on: NCI-H2081; test: cells; format: functional, cell-based, Homo sapiens; settings: Homo sapiens, NCI-H2081;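 also: growth inhibition of human NCI-H2081 cells, read out with a cell viability assay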
Description: SANGER: Inhibition of human NCI-H2081 cell growth in a cell viability assay.

[10] = tested on: A204; test: cells; format: functional, cell-based, Homo sapiens; settings: Homo sapiens, A204;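 also: growth inhibition of human A204 cells, read out with a cell viability assay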
Description: SANGER: Inhibition of human A204 cell growth in a cell viability assay.

[11] = tested on: THP-1; test: cells; format: functional, cell-based, Homo sapiens; settings: Homo sapiens, THP-1;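 also: growth inhibition of THP-1 cells, read out via a cell viability assay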
Description: SANGER: Inhibition of human THP-1 cell growth in a cell viability assay.

[12] = tested on: K052; test: cells; format: functional, cell-based, Homo sapiens; settings: Homo sapiens, K052;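 also: Read-out from a cell viability assay, IC50 reflecting suppression of K052 cell growth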
Description: SANGER: Inhibition of human K052 cell growth in a cell viability assay.

[13] = tested on: HT-29; test: cells; format: functional, cell-based, Homo sapiens; settings: Homo sapiens, HT-29;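 also: growth inhibition of human HT-29 cells, read out by a cell viability assay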
Description: SANGER: Inhibition of human HT-29 cell growth in a cell viability assay.

[14] = tested on: U2OS; test: cells; format: functional, cell-based, Homo sapiens, U-2-OS; settings: Homo sapiens, U2OS;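 also: growth inhibition of human U-2-OS cells, determined with a cell viability assay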
Description: SANGER: Inhibition of human U-2-OS cell growth in a cell viability assay.

[15] = tested on: SW1417; test: cells; format: functional, cell-based, Homo sapiens; settings: Homo sapiens, SW1417;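 also: growth inhibition of human SW1417 cells, read out with a cell viability assay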
Description: SANGER: Inhibition of human SW1417 cell growth in a cell viability assay.

[16] = tested on: MRK-nu-1; test: cells; format: functional, cell-based, Homo sapiens; settings: Homo sapiens, MRK-nu-1;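 also: cell viability assay measuring growth suppression of human MRK-nu-1 cells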
Description: SANGER: Inhibition of human MRK-nu-1 cell growth in a cell viability assay.

[17] = tested on: SW756; test: cells; format: functional, cell-based, Homo sapiens; settings: Homo sapiens, SW756;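 also: growth inhibition of human SW756 cells, read out with a cell viability assay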
Description: SANGER: Inhibition of human SW756 cell growth in a cell viability assay.

[18] = tested on: NCI-H2342; test: cells; format: functional, cell-based, Homo sapiens; settings: Homo sapiens, NCI-H2342;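 also: growth inhibition of the cancer cell line, determined with a cell viability assay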
Description: SANGER: Inhibition of human NCI-H2342 cell growth in a cell viability assay.

[19] = tested on: SW13; test: cells; format: functional, cell-based, Homo sapiens; settings: Homo sapiens, SW13;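 also: IC50 is inhibition of SW13 cell growth, read out with a cell viability assay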
Description: SANGER: Inhibition of human SW13 cell growth in a cell viability assay.

[20] = tested on: GP5d; test: cells; format: functional, cell-based, Homo sapiens; settings: Homo sapiens, GP5d;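 also: growth inhibition of human GP5d cells, read out with a cell viability assay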
Description: SANGER: Inhibition of human GP5d cell growth in a cell viability assay.

[21] = tested on: PC-3; test: cells; format: functional, cell-based, Homo sapiens; settings: Homo sapiens, PC-3;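 also: cell viability assay measuring growth inhibition of PC-3 cells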
Description: SANGER: Inhibition of human PC-3 cell growth in a cell viability assay.

[22] = tested on: KMS-12-PE; test: cells; format: functional, cell-based, Homo sapiens; settings: Homo sapiens, KMS-12-PE;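 also: growth inhibition of human KMS-12-PE cells, measured with a cell viability assay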
Description: SANGER: Inhibition of human KMS-12-PE cell growth in a cell viability assay.

[23] = tested on: NCI-H28; test: cells; format: functional, cell-based, Homo sapiens; settings: Homo sapiens, NCI-H28;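 also: growth inhibition of human NCI-H28 cells, read out as cell viability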
Description: SANGER: Inhibition of human NCI-H28 cell growth in a cell viability assay.

[24] = tested on: COR-L105; test: cells; format: functional, cell-based, Homo sapiens; settings: Homo sapiens, COR-L105
Description: SANGER: Inhibition of human COR-L105 cell growth in a cell viability assay.

[25] = tested on: NCI-H1793; test: cells; format: functional, cell-based, Homo sapiens; settings: Homo sapiens, NCI-H1793;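 also: cell growth inhibition, read out by a cell viability assay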
Description: SANGER: Inhibition of human NCI-H1793 cell growth in a cell viability assay.

[26] = tested on: SJRH30; test: cells; format: functional, cell-based, Homo sapiens; settings: Homo sapiens, SJRH30;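 also: growth inhibition of human SJRH30 cells, read out with a cell viability assay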
Description: SANGER: Inhibition of human SJRH30 cell growth in a cell viability assay.

[27] = tested on: BHY; test: cells; format: functional, cell-based, Homo sapiens; settings: Homo sapiens, BHY;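 also: cell growth inhibition read out by a viability assay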
Description: SANGER: Inhibition of human BHY cell growth in a cell viability assay.

[28] = tested on: CAL-62; test: cells; format: functional, cell-based, Homo sapiens; settings: Homo sapiens, CAL-62;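 also: growth inhibition of CAL-62 cells, read out with a cell viability assay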
Description: SANGER: Inhibition of human CAL-62 cell growth in a cell viability assay.

[29] = tested on: IMR-5; test: cells; format: functional, cell-based, Homo sapiens; settings: Homo sapiens, IMR-5;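 also: growth inhibition of human IMR-5 cells, read out with a cell viability assay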
Description: SANGER: Inhibition of human IMR-5 cell growth in a cell viability assay.

[30] = tested on: NCI-H2227; test: cells; format: functional, cell-based, Homo sapiens; settings: Homo sapiens, NCI-H2227;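 also: growth inhibition of the human cell line, read out with a cell viability assay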
Description: SANGER: Inhibition of human NCI-H2227 cell growth in a cell viability assay.

[31] = tested on: NCI-H1651; test: cells; format: functional, cell-based, Homo sapiens; settings: Homo sapiens, NCI-H1651;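 also: Read-out is a cell viability assay, with IC50 expressing inhibition of NCI-H1651 cell growth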
Description: SANGER: Inhibition of human NCI-H1651 cell growth in a cell viability assay.

[32] = tested on: LC-1F; test: cells; format: functional, cell-based, Homo sapiens; settings: Homo sapiens, LC-1F;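 also: growth inhibition of human LC-1F cells, read out with a cell viability assay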
Description: SANGER: Inhibition of human LC-1F cell growth in a cell viability assay.

[33] = tested on: Ca9-22; test: cells; format: functional, cell-based, Homo sapiens; settings: Homo sapiens, Ca9-22;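 also: growth inhibition of Ca9-22 cells, read out with a cell viability assay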
Description: SANGER: Inhibition of human Ca9-22 cell growth in a cell viability assay.

[34] = tested on: CAL-33; test: cells; format: functional, cell-based, Homo sapiens; settings: Homo sapiens, CAL-33;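 also: growth inhibition of CAL-33 cells, read out with a cell viability assay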
Description: SANGER: Inhibition of human CAL-33 cell growth in a cell viability assay.

[35] = tested on: 8505C; test: cells; format: functional, cell-based, Homo sapiens; settings: Homo sapiens, 8505C
Description: SANGER: Inhibition of human 8505C cell growth in a cell viability assay.

[36] = tested on: CAL-51; test: cells; format: functional, cell-based, Homo sapiens; settings: Homo sapiens, CAL-51;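 also: human CAL-51 cell line, growth inhibition read out via a cell viability assay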
Description: SANGER: Inhibition of human CAL-51 cell growth in a cell viability assay.

[37] = tested on: CWR22R; test: cells; format: functional, cell-based, Homo sapiens; settings: Homo sapiens, 22Rv1;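 also: growth inhibition of 22Rv1 cells, read out with a cell viability assay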
Description: SANGER: Inhibition of human 22RV1 cell growth in a cell viability assay.

[38] = tested on: COR-L279; test: SANGER: Inhibition of human COR-L279 cell growth in a cell viability assay.; format: functional, cell-based; settings: Homo sapiens, COR-L279
[39] = tested on: NCI-H345; test: cells; format: functional, cell-based, Homo sapiens; settings: Homo sapiens, NCI-H345;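 also: growth inhibition of NCI-H345 cells measured with a cell viability assay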
Description: SANGER: Inhibition of human NCI-H345 cell growth in a cell viability assay.

[40] = tested on: NCI-H358; test: cells; format: functional, cell-based, Homo sapiens; settings: Homo sapiens, NCI-H358;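 also: growth inhibition of NCI-H358 human cells, read out with a cell viability assay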
Description: SANGER: Inhibition of human NCI-H358 cell growth in a cell viability assay.

[41] = tested on: SK-MEL-30; test: cells; format: functional, cell-based, Homo sapiens; settings: Homo sapiens, SK-MEL-30;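 also: growth inhibition of SK-MEL-30 cells, determined with a cell viability assay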
Description: SANGER: Inhibition of human SK-MEL-30 cell growth in a cell viability assay.

[42] = tested on: EB-3; test: cells; format: functional, cell-based, Homo sapiens; settings: Homo sapiens, EB-3;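 also: human EB-3 cells, growth inhibition read out via a cell viability assay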
Description: SANGER: Inhibition of human EB-3 cell growth in a cell viability assay.

[43] = tested on: HT-3; test: cells; format: functional, cell-based, Homo sapiens; settings: Homo sapiens, HT-3;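 also: growth inhibition measured with a cell viability readout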
Description: SANGER: Inhibition of human HT-3 cell growth in a cell viability assay.

[44] = tested on: TALL-1; test: cells; format: functional, cell-based, Homo sapiens; settings: Homo sapiens, TALL-1;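 also: growth inhibition of cultured human TALL-1 cells, read out by a cell viability assay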
Description: SANGER: Inhibition of human TALL-1 cell growth in a cell viability assay.

[45] = tested on: NCI-H661; test: cells; format: functional, cell-based, Homo sapiens; settings: Homo sapiens, NCI-H661;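 also: cell viability assay read-out, IC50 being the concentration that inhibits growth of the cells by half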
Description: SANGER: Inhibition of human NCI-H661 cell growth in a cell viability assay.

[46] = tested on: BT-549; test: cells; format: functional, cell-based, Homo sapiens; settings: Homo sapiens, BT-549
Description: SANGER: Inhibition of human BT-549 cell growth in a cell viability assay.

O=C(O)c1ccc(-c2c[nH]c3ncc(-c4ccccc4)cc23)cc1C1CCCC1 [GSK-650394]
IC50 [1]: > 0.016 mM | IC50 [2]: > 0.016 mM | IC50 [3]: > 16 µM | IC50 [4]: > 0.016 mM | IC50 [5]: > 16 µM | IC50 [6]: 3.91 µM | IC50 [7]: 5.17 µM | IC50 [8]: > 0.016 mM | IC50 [9]: > 16 µM | IC50 [10]: > 16 µM | IC50 [11]: > 16 µM | IC50 [12]: > 16 µM | IC50 [13]: 7.27 µM | IC50 [14]: > 0.016 mM | IC50 [15]: > 16 µM | IC50 [16]: 7.05 µM | IC50 [17]: > 0.016 mM | IC50 [18]: 0.00219 mM | IC50 [19]: > 0.016 mM | IC50 [20]: > 0.016 mM | IC50 [21]: > 0.016 mM | IC50 [22]: > 16 µM | IC50 [23]: > 0.016 mM | IC50 [24]: > 0.016 mM | IC50 [25]: > 0.016 mM | IC50 [26]: > 16 µM | IC50 [27]: 4.92 µM | IC50 [28]: 4.77 µM | IC50 [29]: 9.19 µM | IC50 [30]: > 16 µM | IC50 [31]: > 0.016 mM | IC50 [32]: > 16 µM | IC50 [33]: > 0.016 mM | IC50 [34]: 9.96 µM | IC50 [35]: 0.00778 mM | IC50 [36]: 5.36 µM | IC50 [37]: > 0.016 mM | IC50 [38]: > 16 µM | IC50 [39]: > 16 µM | IC50 [40]: 6.25 µM | IC50 [41]: 7.97 µM | IC50 [42]: > 16 µM | IC50 [43]: > 0.016 mM | IC50 [44]: > 16 µM | IC50 [45]: > 0.016 mM

CN(C)C(=N)NC(=N)N [METFORMIN]
IC50 [1]: > 20 mM | IC50 [2]: > 20 mM | IC50 [4]: 9.97 mM | IC50 [6]: > 20000 µM | IC50 [7]: > 20000 µM | IC50 [8]: > 20 mM | IC50 [13]: > 20000 µM | IC50 [14]: > 20 mM | IC50 [17]: > 20 mM | IC50 [18]: 8.62 mM | IC50 [19]: 10 mM | IC50 [20]: > 20 mM | IC50 [21]: > 20 mM | IC50 [23]: 12 mM | IC50 [24]: > 20 mM | IC50 [25]: 18.5 mM | IC50 [27]: > 20000 µM | IC50 [46]: 4.2 mM | IC50 [28]: > 20000 µM | IC50 [31]: 18.5 mM | IC50 [33]: 7.95 mM | IC50 [34]: > 20000 µM | IC50 [35]: 15.4 mM | IC50 [37]: 18 mM | IC50 [41]: > 20000 µM | IC50 [43]: 8.16 mM | IC50 [45]: 4.56 mM
